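Interpolation was linear, between the two tested concentrations surrounding the appropriate level; five concentrations were tested over 48 hours in 96-well plates. GI50 marks 50% less growth. TGI is the concentration that stops growth completely.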

Our source for the GI50 and TGI values is PubChem BioAssay (NCI).

Assay in all cases: growth of human tumour cells (NCI), 48 h
For assay [1], the system named is NCI-H226 lung.
For assay [2], the system named is UACC-257 melanoma.
For assay [3], the system named is U251 CNS.
The test system of assay [4] is HCC-2998 colon.
The test system of assay [5] is A549 NSCLC.
Assay [6] deals with NCI-H460 lung.
The test system of assay [7] is UO-31 renal.
Assay [8] deals with HOP-62 NSCLC.
In assay [9] the test system is DU-145 prostate.
Assay [10] concerns HL-60(TB) leukemia.

With `Cc1[nH]n(-c2cccc(Cl)c2)c(=O)c1/C=C1\C=Nc2ccc(Br)cc21`, the GI50 is 5.81 µM in assay [1]; 85.7 µM in assay [2]; 2.83 µM in [3]; 14.3 µM in assay [4]; 2.27 µM in [5]; 1.78 µM in [6]. Further, the GI50 in assay [7] is 2.08 µM; in assay [8] it was 2.33 µM; in assay [9], 5.71 µM; in assay [10], 4.02 µM. Moreover, the TGI was 28.5 µM in [1]; greater than 100 µM in [2]; 8.65 µM in assay [3]; greater than 100 µM in assay [4]; 5.68 µM in [5]; 3.53 µM in assay [6]. Moreover, the TGI is 6.57 µM in assay [7], 5.14 µM in [8], greater than 100 µM in assay [9] and 33.6 µM in assay [10].

`CC(=O)O[C@@H]1C[C@]2(C(C)C)O[C@@]1(C)[C@@H]1CCC(C)=C1[C@@H]2OC(=O)/C=C/c1ccccc1`: the GI50 in [1] is 29.1 µM; in assay [2] it was 27.8 µM; in assay [3], 48.4 µM; in assay [4] it was 68.1 µM; in assay [5], 47 µM; in assay [6] it was 30.9 µM. The GI50 in [7] was 20 µM; in assay [8], 88.8 µM; in assay [9], 70.1 µM; in assay [10], 25.1 µM. The TGI in assay [1], in assay [2], in assay [3], in assay [4], in [5] and in assay [6] was greater than 100 µM in each case. Further, the TGI in [7], in [8], in assay [9] and in assay [10] was greater than 100 µM throughout.

As for `NC(=O)C(=CNc1nc(-c2ccc(Cl)c(Cl)c2)cs1)C(N)=O`, the GI50 in [1] is greater than 100 µM; in [2], greater than 100 µM; in assay [3], 65 µM; in assay [4], greater than 100 µM; in [5], 85.7 µM; in assay [6] it was 69.7 µM. The GI50 in assay [7] is 12.1 µM; in assay [8], greater than 100 µM; in assay [9], greater than 100 µM; in [10], 42.8 µM. The TGI in assay [1], in assay [2], in assay [3], in [4], in assay [5] and in [6] was greater than 100 µM in each case. Further, the TGI in assay [7], in assay [8], in assay [9] and in assay [10] was greater than 100 µM throughout.

On to `COc1ccc(CNc2c3ccccc3nc3ccccc23)cc1OC`, for which the GI50 in [1] is 2.25 µM; in assay [2], 2.73 µM; in assay [3], 2.98 µM; in assay [4] it was 2.28 µM; in assay [5], 2.24 µM; in [6], 2.49 µM. Further, the GI50 in assay [7] was 1.17 µM; in assay [8], 2.96 µM; in assay [9], 2.8 µM; in assay [10], 2.96 µM. In addition, the TGI in assay [1] worked out at 7.04 µM; in [2] it was 8.22 µM; in [3], 13.6 µM; in assay [4] it was 8.76 µM; in assay [5], 6.87 µM; in assay [6] it was 6.51 µM. Also, the TGI in assay [7] turned out to be 5.05 µM; in assay [8] it was 13.3 µM; in assay [9], 8.43 µM; in assay [10] it was 10 µM.

For the compound `CCN1C(=O)N(CC)C2C1NC(=S)N2/N=C/C=C/c1cccs1` (centres undefined), the GI50 in assay [1] was 2.06 µM; in [3], 0.342 µM; in assay [4], 0.709 µM; in [5], 0.508 µM; in [6], 0.363 µM; in assay [7], 0.923 µM. The GI50 is 0.414 µM in [8], 0.341 µM in assay [9] and 0.281 µM in assay [10]. For the same compound, the TGI is greater than 28.3 µM in assay [1]; greater than 100 µM in assay [2]; greater than 100 µM in assay [3]; greater than 100 µM in assay [4]; greater than 100 µM in assay [5]; greater than 100 µM in assay [6]. In addition, the TGI was greater than 100 µM in [7], greater than 100 µM in assay [8], greater than 100 µM in [9] and 0.857 µM in [10].

Regarding `COc1cc(NC(C)CCCN)c2nccc(C)c2c1OC` (centres undefined), the GI50 in assay [1] is 18.8 µM; in assay [2], 13.7 µM; in assay [3], 14.1 µM; in [4] it was 4.85 µM; in assay [5], 22.8 µM; in [6] it was 14.1 µM. The GI50 in [7] is 17.6 µM; in assay [8], 11.1 µM; in [9], 15.3 µM; in assay [10], 4.56 µM. Further, the TGI in assay [1] is 43 µM; in assay [2], 29.4 µM; in assay [3] it was 27.4 µM; in assay [4] it was 17.8 µM; in assay [5], 58.5 µM; in assay [6], 29.5 µM. Also, the TGI in assay [7] amounted to 34.4 µM; in assay [8], 28 µM; in [9] it was 28.6 µM; in assay [10] it was 16.8 µM.

With `CCCS(=O)(=O)Nc1ccc(Nc2c3ccccc3nc3ccccc23)c(OC)c1`, the TGI in assay [1] turned out to be 13 µM; in assay [2] it was 19.8 µM; in assay [3], 4.41 µM; in [4], 6.3 µM; in assay [5] it was 5.99 µM; in assay [6] it was 2.6 µM. In addition, the TGI in assay [7] stood at 6.47 µM; in assay [8], 5.72 µM; in assay [9], 4.54 µM; in [10], 0.45 µM.

Take `N#CC1(C2SCCS2=O)C2=C(C(=O)c3ccccc3C2=O)N2CCCC21` (centres undefined): the TGI turned out to be 10.7 µM in assay [1]; 2.99 µM in assay [2]; 11.3 µM in assay [3]; 11.8 µM in assay [4]; 6.26 µM in assay [5]; 11.8 µM in assay [6]. For the same compound, the TGI in [7] amounted to 14.2 µM; in assay [8], 14.9 µM; in [9], 4.93 µM; in assay [10], 6.79 µM.

As to `N#CC(C(=O)/C(=N/Nc1nc(=S)[nH]n1N)C(C#N)c1ccccc1)c1ccccc1` (centres undefined), the TGI in assay [1], in assay [2], in assay [3], in [4], in assay [5] and in assay [6] was greater than 100 µM throughout. Moreover, the TGI in assay [7], in assay [8], in assay [9] and in assay [10] was greater than 100 µM throughout.
